From US20100160369A1, “S1P1 Agonists and Methods of Making And Using” (EXELIXIS, INC., priority 2008, published 2010)
Where two headings read alike, the source gives them in different places.

Target: S1P1 (Homo sapiens, UniProt P21453)
Assay: CNG cAMP Assay (Assay 1)
Format: cell-based
Set-up: host or cells: HEK293 cells expressing the CNG channel
Procedure: Frozen HEK293 cells expressing the CNG channel and S1P1 (BD Biosciences, San Jose, Calif.) were thawed and plated into the wells of a black, clear bottom, 384-well CellBind plate (Corning, Corning, N.Y.) at 14,000 cells per well. HEK293 cells expressing the CNG channel and CB1 (BD Biosciences) were cultured and plated under the same conditions. The cells were incubated for 16 h at 37° C. in complete DMEM medium (Invitrogen Carlsbad, Calif.) containing 10% FBS (HyClone Logan, Utah), 250 μg/mL geneticin (Invitrogen), and 1 μg/mL puromycin (Sigma-Aldrich, St. Louis, Mo.). A membrane potential dye (BD Biosciences) was added and the plates were incubated for 2-2.5 h at room temperature.
Test compounds were tested at maximum concentrations of 10 μM. Compounds were diluted in DMSO (10 concentration points, 3-fold each) and added to the assay plate at final DMSO concentrations of 1.8%. For each compound, there were duplicate assay plates and each assay plate had duplicate wells per concentration point. Test compounds were added to the cells in a DPBS solution containing 25 μM Ro 20-1724 (Sigma-Aldrich), 500 nM of the A2b receptor agonist NECA (Sigma-Aldrich) and 10 nM (EC95) of S1P (Avanti Alabaster, Ala.) and incubated for 90 min. The assay plate was read before compound addition (T0) and after the 90 min incubation (T90) using an EnVision plate reader (PerkinElmer, Waltham, Mass.) at an excitation wavelength of 350 nm and an emission wavelength of 590 nm. The T90/T0 ratio was determined for each concentration of the test compounds. The percent agonist activity was determined as [(test compound−DMSO alone control)/(NECA alone control−DMSO alone control)*100]. The percent activities were plotted against compound concentration to determine EC50 using XLFit (IDBS, Alameda, Calif.). The control used for calculating rEC50 in the S1P1 CNG agonist assay was DMSO.
Assay 1 is the CNG cAMP Assay as described in Biological Example 1. Assay 2a and 2b are the Tango™ β-arrestin Recruitment Assay in HEK293 and U2OS cells, respectively, as described in Biological Example 2. Assay 3a is the hS1P1R GTPγS Binding Assay as described in Biological Example 3. Assay 3b is the GTP-Eu Binding Assay as described in Biological Example 3. EC50's were measured unless otherwise noted. […] In the table, “nt” means the Compound was not tested and “no” means the compound was tested but had no measurable activity under the assay conditions employed.

[1] = relative EC50 was measured (footnote 1), read-out: Assay 1 Relative EC50
[2] = footnote 1: Relative EC50 was measured, read-out: Assay 1 Relative EC50

Sequence of S1P1 (P21453 whole entry): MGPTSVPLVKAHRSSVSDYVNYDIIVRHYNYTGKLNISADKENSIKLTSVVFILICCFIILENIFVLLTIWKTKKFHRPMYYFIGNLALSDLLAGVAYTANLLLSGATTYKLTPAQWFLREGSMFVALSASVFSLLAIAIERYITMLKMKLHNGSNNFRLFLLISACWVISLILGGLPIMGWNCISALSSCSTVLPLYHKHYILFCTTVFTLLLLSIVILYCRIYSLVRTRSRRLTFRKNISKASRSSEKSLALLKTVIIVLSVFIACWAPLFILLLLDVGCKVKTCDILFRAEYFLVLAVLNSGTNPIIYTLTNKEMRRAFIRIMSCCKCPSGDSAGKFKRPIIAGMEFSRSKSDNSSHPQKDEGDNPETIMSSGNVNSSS

Row | EC50 (read-out: Assay 1 EC50) | Compound | also measured
1 | 100 to 500 nM | CC(CC(=O)O)c1ccc(-c2noc(-c3cn4cc(C(F)(F)F)cc(Cl)c4n3)n2)c(F)c1 (centres unmarked) [Example 186, 3-(4-{5-[8-chloro-6-(trifluoromethyl)imidazo[1,2-a]pyridin-2-yl]-1,2,4-oxadiazol-3-yl}-3-fluorophenyl)butanoic acid] | 
2 | 100 to 500 nM | CC(C)(O)c1ccc(-c2noc(-c3cn4cc(C(F)(F)F)cc(Cl)c4n3)n2)c(Cl)c1 [Example 126, 2-(3-chloro-4-{5-[8-chloro-6-(trifluoromethyl)imidazo[1,2-a]pyridin-2-yl]-1,2,4-oxadiazol-3-yl}phenyl)propan-2-ol] | 
3 | 100 to 500 nM | O=C(O)C1CC1c1ccc(-c2noc(-c3cn4cc(C(F)(F)F)cc(Cl)c4n3)n2)c(C(F)(F)F)c1 (centres unmarked) [Entry 70] | 
4 | ≤ 100 nM | O=C(O)C1CC1c1ccc(-c2noc(-c3cn4cc(C(F)(F)F)cc(Cl)c4n3)n2)cc1Cl (centres unmarked) [Example 215, 2-(2-chloro-4-{5-[8-chloro-6-(trifluoromethyl)imidazo[1,2-a]pyridin-2-yl]-1,2,4-oxadiazol-3-yl}phenyl)cyclopropanecarboxylic acid] | 
5 | ≤ 100 nM | Cc1cc(-c2noc(-c3cn4cc(C(F)(F)F)cc(Cl)c4n3)n2)ccc1CCC(=O)O [Entry 23] | 
6 | ≤ 100 nM | O=C(O)C(O)COc1ccc(-c2noc(-c3cn4cc(C(F)(F)F)cc(Cl)c4n3)n2)c(Cl)c1 (centres unmarked) [Entry 57] | 
7 | 500 to 1000 nM | O=C(O)Cn1ccc2c(-c3noc(-c4cn5cc(C(F)(F)F)cc(Cl)c5n4)n3)cccc21 [Example 293, (4-{5-[8-chloro-6-(trifluoromethyl)imidazo[1,2-a]pyridin-2-yl]-1,2,4-oxadiazol-3-yl}-1H-indol-1-yl)acetic acid] | 

More lines, now with the values behind:

Row | Compound | EC50 (read-out: Assay 1 EC50) | also measured
8 | OCCN1CCC(Oc2cc(Cl)c(-c3noc(-c4cn5cc(C(F)(F)F)cc(Cl)c5n4)n3)cc2F)C1 (centres unmarked) [Example 144, 2-{3-[(5-chloro-4-{5-[8-chloro-6-(trifluoromethyl)imidazo[1,2-a]pyridin-2-yl]-1,2,4-oxadiazol-3-yl}-2-fluorophenyl)oxy]pyrrolidin-1-yl}ethanol] | 100 to 500 nM | 
9 | O=C(O)CCc1ccc(Nc2nnc(-c3cn4cc(C(F)(F)F)cc(Cl)c4n3)o2)c(Cl)c1 [Entry 74] |  | EC50 [1]: 5000 to 10000 nM
10 | O=C(O)CCc1cc(Cl)c(-c2noc(-c3cn4cc(F)cc(F)c4n3)n2)cc1F [Entry 40] |  | EC50 [1]: 1000 to 5000 nM
11 | NCC(O)COc1cc(Cl)c(-c2nnc(-c3cn4cc(C(F)(F)F)cc(Cl)c4n3)s2)cc1F (centres unmarked) [Example 249, 1-amino-3-[(5-chloro-4-{5-[8-chloro-6-(trifluoromethyl)imidazo[1,2-a]pyridin-2-yl]-1,3,4-thiadiazol-2-yl}-2-fluorophenyl)oxy]propan-2-ol] | ≤ 100 nM | 
12 | NCC(O)COc1ccc(-c2noc(-c3cn4cc(C(F)(F)F)cc(Cl)c4n3)n2)c(Cl)c1 (centres unmarked) [Example 223, 1-amino-3-[(3-chloro-4-{5-[8-chloro-6-(trifluoromethyl)imidazo[1,2-a]pyridin-2-yl]-1,2,4-oxadiazol-3-yl}phenyl)oxy]propan-2-ol] | ≤ 100 nM | 
13 | O=c1[nH]c(Cc2ccc(-c3noc(-c4cn5cc(C(F)(F)F)cc(Cl)c5n4)n3)c(Cl)c2)no1 [Example 271, 3-[(3-chloro-4-{5-[8-chloro-6-(trifluoromethyl)imidazo[1,2-a]pyridin-2-yl]-1,2,4-oxadiazol-3-yl}phenyl)methyl]-1,2,4-oxadiazol-5(4H)-one] | 100 to 500 nM | 
14 | CS(=O)(=O)Nc1c(F)cc(-c2noc(-c3cn4cc(C(F)(F)F)cc(Cl)c4n3)n2)cc1F [Example 265, N-(4-{5-[8-chloro-6-(trifluoromethyl)imidazo[1,2-a]pyridin-2-yl]-1,2,4-oxadiazol-3-yl}-2,6-difluorophenyl)methanesulfonamide] |  | EC50 [2]: 500 to 1000 nM
15 | CC(C)(Oc1ccc(-c2noc(-c3cn4cc(C(F)(F)F)cc(Cl)c4n3)n2)c(Cl)c1)C(=O)O [Example 254, 2-[(3-chloro-4-{5-[8-chloro-6-(trifluoromethyl)imidazo[1,2-a]pyridin-2-yl]-1,2,4-oxadiazol-3-yl}phenyl)oxy]-2-methylpropanoic acid] |  | EC50 [2]: 5000 to 10000 nM
16 | CC(Oc1cc(Cl)c(-c2nc(-c3cn4cc(C(F)(F)F)cc(Cl)c4n3)no2)cc1F)C(=O)O (centres unmarked) [Example 205, 2-[(5-chloro-4-{3-[8-chloro-6-(trifluoromethyl)imidazo[1,2-a]pyridin-2-yl]-1,2,4-oxadiazol-5-yl}-2-fluorophenyl)oxy]propanoic acid] |  | EC50 [2]: 100 to 500 nM
17 | O=c1nc(-c2ccc(-c3noc(-c4cn5cc(C(F)(F)F)cc(Cl)c5n4)n3)c(Cl)c2)[nH]o1 [Example 134, 3-(3-chloro-4-{5-[8-chloro-6-(trifluoromethyl)imidazo[1,2-a]pyridin-2-yl]-1,2,4-oxadiazol-3-yl}phenyl)-1,2,4-oxadiazol-5(2H)-one] | 500 to 1000 nM | 
18 | FC(F)(F)c1cc(Cl)c2nc(-c3nc(-c4cccc5[nH]ccc45)no3)cn2c1 [Example 162, 8-chloro-2-[3-(1H-indol-4-yl)-1,2,4-oxadiazol-5-yl]-6-(trifluoromethyl)imidazo[1,2-a]pyridine] | ≤ 100 nM | 
19 | CS(=O)(=O)Nc1ccc(-c2nnc(-c3cn4cc(C(F)(F)F)cc(Cl)c4n3)o2)c(Cl)c1 [Example 218, N-(3-chloro-4-{5-[8-chloro-6-(trifluoromethyl)imidazo[1,2-a]pyridin-2-yl]-1,3,4-oxadiazol-2-yl}phenyl)methanesulfonamide] | 100 to 500 nM | 
20 | CCOC(=O)C(C)Oc1cc(Cl)c(-c2noc(-c3cn4cc(C(F)(F)F)cc(Cl)c4n3)n2)cc1F (centres unmarked) [Example 113, ethyl 2-[(5-chloro-4-{5-[8-chloro-6-(trifluoromethyl)imidazo[1,2-a]pyridin-2-yl]-1,2,4-oxadiazol-3-yl}-2-fluorophenyl)oxy]propanoate] | ≤ 100 nM | 
21 | Oc1cc(Cl)c(-c2noc(-c3cn4cc(C(F)(F)F)cc(Br)c4n3)n2)cc1Cl [Example 197, 4-{5-[8-bromo-6-(trifluoromethyl)imidazo[1,2-a]pyridin-2-yl]-1,2,4-oxadiazol-3-yl}-2,5-dichlorophenol] | 100 to 500 nM | 
22 | FC(F)(F)c1cc(Cl)c2nc(-c3nc(-c4ccc5[nH]ccc5c4)no3)cn2c1 [Example 151, 8-chloro-2-[3-(1H-indol-5-yl)-1,2,4-oxadiazol-5-yl]-6-(trifluoromethyl)imidazo[1,2-a]pyridine] | 100 to 500 nM | 
23 | Fc1cccc(Cl)c1-c1noc(-c2cn3cc(C(F)(F)F)cc(Br)c3n2)n1 [Example 147, 8-bromo-2-[3-(2-chloro-6-fluorophenyl)-1,2,4-oxadiazol-5-yl]-6-(trifluoromethyl)imidazo[1,2-a]pyridine] | 100 to 500 nM | 
24 | Cc1cc(-c2noc(-c3cn4cc(C(F)(F)F)cc(Cl)c4n3)n2)cc(C)c1O[C@H](C)CO [Example 91, (2R)-2-[(4-{5-[8-chloro-6-(trifluoromethyl)imidazo[1,2-a]pyridin-2-yl]-1,2,4-oxadiazol-3-yl}-2,6-dimethylphenyl)oxy]propan-1-ol] | ≤ 100 nM | 
25 | C=CCOc1c(C)cc(-c2noc(-c3cn4cc(C(F)(F)F)cc(Cl)c4n3)n2)cc1C [Entry 37] |  | EC50 [1]: 5000 to 10000 nM
26 | CC(N)COc1ccc(-c2noc(-c3cn4cc(C(F)(F)F)cc(Cl)c4n3)n2)c(Cl)c1 (centres unmarked) [Example 200, 1-[(3-chloro-4-{5-[8-chloro-6-(trifluoromethyl)imidazo[1,2-a]pyridin-2-yl]-1,2,4-oxadiazol-3-yl}phenyl)oxy]propan-2-amine] | 100 to 500 nM | 
